The results in this text go back to PubChem BioAssay (NCI).

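Five concentrations, 48 hours, 96-well plates. TGI: total growth inhibition.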

Assay in all cases: NCI tumour cell line growth inhibition, 48 h
For assay [1], the system named is DLD-1 colon.
Assay [2] deals with M19-MEL melanoma.
Assay [3] deals with DMS 114 small cell lung.
In assay [4] the test system is KM20L2 colon.
Assay [5] concerns HOP-18 NSCLC.
The subject of assay [6] is P388/ADR leukemia.
The subject of assay [7] is P388 leukemia.
For assay [8], the system named is SN12K1 renal.

For the compound `CC1=NN(C(=O)Cc2ccccc2)C(=O)/C1=C\c1ccccc1O`, the TGI in assay [1], in assay [2], in assay [3] and in assay [4] was greater than 100 µM in each case.
In the case of `O=C(Nc1ccc(Sc2ccc(N=Nc3c(O)c(S(=O)(=O)O)cc4cc(S(=O)(=O)O)ccc34)cc2)cc1)c1ccc(N=Nc2c(O)c(S(=O)(=O)O)cc3cc(S(=O)(=O)O)ccc23)cc1`, the TGI in assay [5] is 79.7 µM; in assay [1], greater than 100 µM; in assay [2], greater than 100 µM; in assay [3], 42.9 µM; in assay [4], greater than 100 µM.
Regarding `O=C(c1ccccc1O)c1cc(-c2ncc3c(=O)c4ccccc4oc3n2)c(-c2ccccc2O)[nH]c1=O`, the TGI was 61 µM in assay [6]; greater than 100 µM in assay [5]; greater than 61.5 µM in assay [1]; 47.8 µM in assay [7]; greater than 68.2 µM in assay [2]; 80.4 µM in assay [3]. In addition, the TGI in assay [8] came out at 35.1 µM.
Regarding `Cc1ccc(C#CS(=O)(=O)C(F)(F)F)cc1`, the TGI in assay [6], in assay [5], in assay [1], in assay [7], in assay [2] and in assay [3] was greater than 100 µM each time. Also, the TGI in assay [8] and in assay [4] was greater than 100 µM each time.
Take `COc1ccc([C@H]2c3cc4c(cc3OC(O)(CO)[C@H]2C(=O)O)OCO4)c(OC)c1` (stereo partly specified) (tested in a mixture with another compound): the TGI in assay [5], in assay [1], in assay [2], in assay [3] and in assay [4] was greater than 100 µM throughout.
Consider `O=NN1C(c2ccccc2)CCCC1c1ccccc1` (stereo unspecified), for which the TGI was greater than 100 µM in assay [6]; greater than 100 µM in assay [5]; greater than 100 µM in assay [1]; 81.8 µM in assay [7]; greater than 100 µM in assay [2]; greater than 100 µM in assay [3]. Besides, the TGI in assay [8] and in assay [4] was greater than 100 µM each time.
Take `Cn1cnc(SC2=C3C(=O)C=C4S[C@H]5C[C@]42c2c(c(O)c4c6c2=[N+]3CCC=6C=N4)N5)c1CC(N)C(=O)O` (stereo partly specified): the TGI is greater than 100 µM in assay [5]; 31.4 µM in assay [1]; 21.5 µM in assay [2]; 6.11 µM in assay [3]; 16.6 µM in assay [4].
Take `COc1ccc(C2=C(Cl)c3cc(OC)c(OC)cc3C2)cc1OC`: the TGI in assay [5], in assay [1], in assay [2], in assay [3] and in assay [4] was greater than 100 µM each time.
Take `COc1ccc(CCCN2c3ccccc3Sc3ccccc32)cc1`: the TGI in assay [5], in assay [1], in assay [3] and in assay [4] was greater than 100 µM throughout.
